{"source": "patent US20090099154A1", "about": "“Pharmaceutical Sustained Release Compositions and Processes Thereof” (PANACEA BIOTEC LTD., priority 2005, published 2009)", "origin": "cited, not measured here", "key": {"HSV-2-infected cells": {"test_system": "HSV-2-infected cells", "conditions": "HSV-2-infected cells cultured in vitro"}, "VZV-infected cells": {"test_system": "VZV-infected cells", "conditions": "VZV-infected cells cultured in vitro"}, "HSV-1-infected cells": {"test_system": "HSV-1-infected cells", "conditions": "HSV-1-infected cells cultured in vitro"}}}
{"substance": "Penciclovir triphosphate", "values": [{"measurement": "intracellular half-life", "setting": "HSV-2-infected cells", "value": 20, "unit": "h"}, {"measurement": "intracellular half-life", "setting": "VZV-infected cells", "value": 7, "unit": "h"}, {"measurement": "intracellular half-life", "setting": "HSV-1-infected cells", "value": 10, "unit": "h"}]}
